pIC50: −log10 of the molar value.
Experiments:
Rat white adipocytes = assay: Adipocyte differentiation inhibition test (Test Example 3); type: cell-based; conditions: with Compound A 3.3 nM, 5 days, Oil Red O ABS550, N.D. denotes not calculable; for pIC50: Adipocyte, 120 h
Experimental: Rat white adipocytes included in a white adipocyte culture kit purchased from Primary Cell Co., Ltd. were subjected to this test. A medium included in the white adipocyte culture kit purchased from Primary Cell Co., Ltd. was used as a growth medium or a differentiation-inducing medium.
The whole of the transportation medium was extracted immediately after the arrival of the purchased cells. The growth medium was added in an amount of 5 ml(/25 cm^2-flask), and the cells were cultured for one day. Thereafter, a cell suspension (83,000 cells/mL) was prepared using the growth medium. The cell suspension was dispensed to a 96-well type-I collagen-coated microplate (Becton, Dickinson and Company) at 5,000 to 6,000 cells/well (60 μL/well). A well to which only the growth medium not containing cells was dispensed (blank well) was provided as a blank group in each plate.
3) For the negative control group, DMSO diluted 20-fold with the differentiation-inducing medium was added at 3 μL/well (final DMSO concentration: 0.1% (v/v)) to the wells into which the cells were seeded.
After culturing for five days, the whole of the differentiation-inducing medium was removed from each well, and 60 μL of a 10% (v/v) formaldehyde solution (fixative solution) was added to each well. The cells were incubated at room temperature for 20 minutes. The whole of the fixative solution was removed and 60 μL of a 0.2% (v/v) Triton X-100 solution (Sigma) was dispensed to each well. The cells were incubated at room temperature for five minutes. The whole of the Triton X-100 solution was removed. A fat stain was prepared by dissolving Oil Red 0 (Sigma) in a 60% (v/v) isopropanol solution at 0.3% (w/v), and 60 μL of the fat stain was dispensed to each well. The cells were incubated at room temperature for 10 minutes. The whole of the fat stain was removed, and then 60 μL of a 60% (v/v) isopropanol solution was dispensed and removed. Thus, each well was washed twice. Thereafter, DMSO was added to each well at 100 μL per well, followed by stirring at room temperature for five minutes. […] The degree of adipocyte differentiation (%) of the test compound-added group was calculated assuming that the measured ABS550 of the positive control group was 100% and the measured ABS550 of the negative control group was 0.
N.D. denotes not calculable.

| SMILES | pIC50 (Rat white adipocytes) | Imax (%) (Rat white adipocytes) | melting point |
| --- | --- | --- | --- |
| Cc1cc(Oc2ccc3nc(COc4cccc(C(=O)O)c4)n(C)c3c2)cc(C)c1N.Cl.Cl [Example 2, 3-{[6-(4-Amino-3,5-dimethylphenoxy)-1-methyl-1H-benzimidazol-2-yl]methoxy}benzoic acid dihydrochloride] | 7.92 | −33% | 235 to 239 °C |
| Cl.Cn1c(COc2cccc(C(=O)O)c2)nc2ccc(Oc3cccc(F)c3)cc21 [Example 8, 3-{[6-(3-Fluorophenoxy)-1-methyl-1H-benzimidazol-2-yl]methoxy}benzoic acid hydrochloride] | 7.28 | −29% | – |
| Cl.Cn1c(COc2cccc(C(=O)O)c2)nc2ccc(Oc3ccc(Cl)c(F)c3)cc21 [Example 10, 3-{[6-(4-Chloro-3-fluorophenoxy)-1-methyl-1H-benzimidazol-2-yl]methoxy}benzoic acid hydrochloride] | 7.35 | −29% | – |

From patent US20100048564A1, “FUSED BICYCLIC HETEROARYL DERIVATIVE” (DAIICHI SANKYO COMPANY, LIMITED, priority 2007, published 2010)
